Source: PMC6023986, “Interactions Between Emodin and Efflux Transporters on Rat Enterocyte by a Validated Ussing Chamber Technique” (Frontiers in Pharmacology, 2018)
Like-named read-outs stand apart in the source and are kept apart here.

Experiments:
[1] = molecular target: T1, MRP2 (Rattus norvegicus, UniProt Q63120); assay: Ussing chamber bidirectional transport, model validation for MRP2 (pravastatin substrate, MK571 inhibitor); assay type: in vitro ADME; set-up: intestinal segments including duodenum, jejunum, ileum, and colon from anesthetized rats were immediately removed by surgery; from tissue; host or cells: stripped rat intestine (jejunum and ileum in validation; jejunum for the emodin studies); conditions: rat
T1 sequence (Q63120 whole entry): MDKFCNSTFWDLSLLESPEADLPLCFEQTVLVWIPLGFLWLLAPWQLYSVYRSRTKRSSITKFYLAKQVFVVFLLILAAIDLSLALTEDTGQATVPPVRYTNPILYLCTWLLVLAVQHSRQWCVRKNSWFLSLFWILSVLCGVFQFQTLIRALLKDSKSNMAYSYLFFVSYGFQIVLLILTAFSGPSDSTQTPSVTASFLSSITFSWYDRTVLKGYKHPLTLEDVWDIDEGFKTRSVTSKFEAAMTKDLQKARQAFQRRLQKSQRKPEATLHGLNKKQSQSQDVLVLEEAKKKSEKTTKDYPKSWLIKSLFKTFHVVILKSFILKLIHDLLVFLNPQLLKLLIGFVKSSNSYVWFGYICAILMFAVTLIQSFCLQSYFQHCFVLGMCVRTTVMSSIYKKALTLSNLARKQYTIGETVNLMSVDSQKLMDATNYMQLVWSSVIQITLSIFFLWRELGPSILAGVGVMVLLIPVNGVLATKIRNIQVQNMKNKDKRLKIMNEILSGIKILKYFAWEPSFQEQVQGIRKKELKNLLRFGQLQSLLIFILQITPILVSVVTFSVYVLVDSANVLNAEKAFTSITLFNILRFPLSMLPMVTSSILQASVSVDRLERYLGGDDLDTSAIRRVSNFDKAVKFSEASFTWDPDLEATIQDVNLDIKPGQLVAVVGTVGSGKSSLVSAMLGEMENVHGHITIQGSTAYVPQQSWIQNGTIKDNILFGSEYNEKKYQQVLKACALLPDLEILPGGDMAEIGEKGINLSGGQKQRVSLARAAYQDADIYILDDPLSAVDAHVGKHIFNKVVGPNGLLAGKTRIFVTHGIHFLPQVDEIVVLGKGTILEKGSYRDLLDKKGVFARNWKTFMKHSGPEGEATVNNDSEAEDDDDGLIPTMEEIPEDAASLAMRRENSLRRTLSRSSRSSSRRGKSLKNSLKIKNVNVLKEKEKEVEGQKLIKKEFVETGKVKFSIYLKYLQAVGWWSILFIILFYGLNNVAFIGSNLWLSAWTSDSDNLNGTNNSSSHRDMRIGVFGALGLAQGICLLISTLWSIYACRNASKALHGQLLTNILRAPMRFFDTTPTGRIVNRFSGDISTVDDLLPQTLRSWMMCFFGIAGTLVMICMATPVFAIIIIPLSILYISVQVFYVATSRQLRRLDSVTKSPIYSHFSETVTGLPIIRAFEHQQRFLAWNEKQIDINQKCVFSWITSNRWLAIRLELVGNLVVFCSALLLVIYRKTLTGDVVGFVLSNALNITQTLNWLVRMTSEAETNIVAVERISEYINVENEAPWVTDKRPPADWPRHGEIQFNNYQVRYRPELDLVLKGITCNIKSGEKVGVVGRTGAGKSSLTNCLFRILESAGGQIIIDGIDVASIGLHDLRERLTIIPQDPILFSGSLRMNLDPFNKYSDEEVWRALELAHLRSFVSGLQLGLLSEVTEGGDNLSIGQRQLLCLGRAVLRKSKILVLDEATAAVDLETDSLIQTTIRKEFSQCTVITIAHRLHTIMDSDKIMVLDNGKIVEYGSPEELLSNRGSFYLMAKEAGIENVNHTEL
From the text: (§1) The four intestinal segments including duodenum, jejunum, ileum, and colon from anesthetized rats were immediately removed by surgery and washed with KRB solution. Each section of the intestinal segments was then placed in cold (on ice), bubbled (O2:CO2 95:5) KRB buffer. The four intestinal segments were then cut into 2 cm pieces, respectively, and serosas were removed by blunt dissection. Peyer’s patches were excluded from the experiment by visually identified. The stripped tissues were mounted in chambers with exposed surface area of 0.49 cm^2. Temperature of the chambers was maintained at 37 ± 0.5°C. Each of the half-cells in the chambers was filled with 5 mL fresh KRB buffer (pH 6.5). Tissue viability was continuously controlled by potential difference (PD).
Digoxin, pravastatin, and teniposide were employed as the test substrates of P-gp, MRP2, and MRP3. […] The experiments were started after 30 min equilibration time, by changing the KRB buffer on both sides; 5 mL KRB solution with different test compounds was filled in the mucosal or serosal compartment; meanwhile, equal volume fresh buffer was added to the other compartment. […] The bidirectional transport studies with specific inhibitors were assessed to validate this model whether or not suitable for P-gp, MRP2, and MRP3 studies.
(§2) Frozen samples were adequately vortexed after thawing at the room temperature; 10 μL suitable IS solution was added to 200 μL samples; 200 μL methanol was added after a thorough vortex mixing for 30 s. The mixtures were then vortexed for 30 s and centrifuged at 15,000 rpm for 30 min. Finally, 5 μL of supernatant was injected into the LC-MS/MS system.
The quantifications of the compounds were performed by the TSQ Quantum Ultra Triple Quadrupole LC-MS/MS system from Thermo Fisher Scientific. […] Adaptive gradient elution methods were applied for the analytes. The flow rate of the mobile phase was kept at 0.2 mL min^-1. Flow was directed to the ion spray interface. All measurements were carried out in negative ESI mode. Ion spray voltage was -2500 V. Vaporizer and capillary temperatures were set at 250 and 350°C, respectively. Auto sampler temperature was set at 10°C. Sheath gas and aux gas were set at 30 and 15 Arb, respectively. […] Peak integrations and calibrations were carried out using LC Quan 2.5.2 software from Thermo Fisher Scientific.
(§3) where Cn (nM) is the concentration of the drug at the time point (n), Q (nM) is the accumulated absorption amount, A is the exposed surface area of the intestine (0.49 cm^2), dQ/dt (nM⋅s^-1) is the amount of the drug transported, and C0 (nM) is the initial concentration of the test drug. Experiments were performed in batches, so control groups were set as one for each batch.

[2] = molecular target: T1, MRP2; assay: Influence of emodin on MRP2 function: pravastatin bidirectional transport in the presence of emodin (Ussing chamber); assay type: in vitro ADME; set-up: intestinal segments including duodenum, jejunum, ileum, and colon from anesthetized rats were immediately removed by surgery; from tissue; host or cells: stripped rat intestine (jejunum and ileum in validation; jejunum for the emodin studies); conditions: rat jejunum; for Papp at 47 μM: rat
From the text: as §1, with “(PD). Tissue with electrical values less than 2 mV was refused ([Moazed and Hiebert, 2007]; [Heinen et al., 2013]).” for “(PD).”
In this study, the effects of the three efflux transporters on emodin intestinal absorption were investigated. Meanwhile, the influence of emodin on intestinal P-gp, MRP2, and MRP3 functions were also discussed. Solutions with three concentrations (low, middle, and high) of emodin were filled in the mucosal or serosal compartment to measure the bidirectional transport characteristic. […] In the emodin impact experiments, digoxin, pravastatin, and teniposide were employed as P-gp, MRP2, and MRP3 substrates. Changes of the bidirectional transport characteristic were measured before and after adding emodin to the mucosal side.
as §2
The quantifications of the compounds were performed by the TSQ Quantum Ultra Triple Quadrupole LC-MS/MS system from Thermo Fisher Scientific. Chromatography was carried out using an Agilent Poroshell 120 SB-C18 (2.7 μm, 2.1 mm × 100 mm) column with a Phenomenex AFO-8497 C18 pre-column, operating at 30°C. Adaptive gradient elution methods were applied for the analytes. The flow rate of the mobile phase was kept at 0.2 mL min^-1. Flow was directed to the ion spray interface. All measurements were carried out in negative ESI mode. Ion spray voltage was -2500 V. Vaporizer and capillary temperatures were set at 250 and 350°C, respectively. Auto sampler temperature was set at 10°C. Sheath gas and aux gas were set at 30 and 15 Arb, respectively. […] Peak integrations and calibrations were carried out using LC Quan 2.5.2 software from Thermo Fisher Scientific.
The Q (accumulative quantity), Papp (apparent permeability), Er (efflux ratio), Pr (Papp ratio), and Err (Er ratio) across the excited rat intestinal segments in the Ussing chamber were calculated using the following equations ([Li et al., 2012]; [Huang et al., 2016]): […]
as §3

Papp ([1]; pH 6.5, rat duodenum, without inhibitor, read-out: Papp M-S, control): 124 ± 67.3 ×10⁻⁶ cm/s
Papp ([1]; pH 6.5, rat duodenum, without inhibitor, read-out: Papp S-M, control): 287 ± 165 ×10⁻⁶ cm/s
Papp ([1]; pH 6.5, rat ileum, without inhibitor, read-out: Papp M-S, control): 122 ± 52.5 ×10⁻⁶ cm/s
Papp ([1]; pH 6.5, rat ileum, without inhibitor, read-out: Papp S-M, control): 678 ± 325 ×10⁻⁶ cm/s
Papp ([1]; pH 6.5, rat jejunum, without inhibitor, read-out: Papp M-S, control): 146 ± 39.4 ×10⁻⁶ cm/s
Papp ([1]; pH 6.5, rat jejunum, without inhibitor, read-out: Papp S-M, control): 496 ± 226 ×10⁻⁶ cm/s
Papp ([1]; pH 6.5, with MK571 186 μM on mucosal side, rat jejunum, with MK571 186 μM on mucosal side, read-out: Papp S-M, with inhibitor): 127 ± 33.4 ×10⁻⁶ cm/s
Papp ([1]; pH 6.5, with MK571 186 μM, mucosal side, rat duodenum, with MK571 186 μM on mucosal side, read-out: Papp M-S, with inhibitor): 77.9 ± 14.8 ×10⁻⁶ cm/s
Papp ([1]; pH 6.5, with MK571 186 μM, mucosal side, rat duodenum, with MK571 186 μM on mucosal side, read-out: Papp S-M, with inhibitor): 112 ± 52.7 ×10⁻⁶ cm/s
Papp ([1]; pH 6.5, with MK571 186 μM, mucosal side, rat ileum, with MK571 186 μM on mucosal side, read-out: Papp M-S, with inhibitor): 124 ± 67.9 ×10⁻⁶ cm/s
Papp ([1]; pH 6.5, with MK571 186 μM, mucosal side, rat ileum, with MK571 186 μM on mucosal side, read-out: Papp S-M, with inhibitor): 224 ± 141 ×10⁻⁶ cm/s
Papp ([1]; pH 6.5, with MK571 186 μM, mucosal side, rat jejunum, with MK571 186 μM on mucosal side, read-out: Papp M-S, with inhibitor): 107 ± 26.8 ×10⁻⁶ cm/s
Change of Papp and Er values of pravastatin after emodin added ([2]; pravastatin 47 μM, emodin 185, 370, 740 μM): No significant differences
Papp at 47 μM ([2]; pH 6.5, pravastatin 47 μM, without emodin, read-out: Papp M-S, control): 64.5 ± 27.9 ×10⁻⁶ cm/s
Papp at 47 μM ([2]; pH 6.5, pravastatin 47 μM, without emodin, read-out: Papp S-M, control): 82.2 ± 40.4 ×10⁻⁶ cm/s
Papp at 47 μM ([2]; pH 6.5, with emodin 185 μM on mucosal side, pravastatin 47 μM, emodin 185 μM on mucosal side, read-out: Papp M-S in the presence of emodin): 123 ± 19.9 ×10⁻⁶ cm/s
Papp at 47 μM ([2]; pH 6.5, with emodin 185 μM on mucosal side, pravastatin 47 μM, emodin 185 μM on mucosal side, read-out: Papp S-M in the presence of emodin): 70.3 ± 19.8 ×10⁻⁶ cm/s
Papp at 47 μM ([2]; pH 6.5, with emodin 370 μM on mucosal side, pravastatin 47 μM, emodin 370 μM on mucosal side, read-out: Papp M-S in the presence of emodin): 106 ± 40.3 ×10⁻⁶ cm/s
Papp at 47 μM ([2]; pH 6.5, with emodin 370 μM on mucosal side, pravastatin 47 μM, emodin 370 μM on mucosal side, read-out: Papp S-M in the presence of emodin): 90.8 ± 12.7 ×10⁻⁶ cm/s
Papp at 47 μM ([2]; pH 6.5, with emodin 740 μM on mucosal side, pravastatin 47 μM, emodin 740 μM on mucosal side, read-out: Papp M-S in the presence of emodin): 93.8 ± 28.7 ×10⁻⁶ cm/s
Papp at 47 μM ([2]; pH 6.5, with emodin 740 μM on mucosal side, pravastatin 47 μM, emodin 740 μM on mucosal side, read-out: Papp S-M in the presence of emodin): 105 ± 27.3 ×10⁻⁶ cm/s
Structure (SMILES): CC[C@H](C)C(=O)O[C@H]1C[C@H](O)C=C2C=C[C@H](C)[C@H](CC[C@@H](O)C[C@@H](O)CC(=O)O)[C@H]21 [Pravastatin]
